Values quoted from earlier work in patent US20030180373A1, “Method for viral inactivation of hydro-alcoholic solutions” (priority 2000, published 2003).

Tested on: viruses of Norwalk and Norwalk type
Conditions: disinfectants conventionally used; ethanol at a concentration of 75%

SMILES | Effect of the disinfectant on the virus
[Na+].[O-]Cl [bleach] | capable of destroying the virus
CCO [ethanol] | no effect
O=CCCCC=O [glutaraldehyde] | capable of destroying the virus
